Results published in US5756510A, “Benzamide analogs useful as PARP (ADP-ribosyltransferase, ADPRT) DNA repair enzyme inhibitors” (Newcastle University Ventures Limited, priority 1994, dated 1998).
Like-named read-outs stand apart in the source and are kept apart here.

How the values were obtained:
[1] = target: T1, PARP (Mus musculus, UniProt P11103); test: PARP inhibition assay ([32P]-NAD incorporation into TCA-precipitated poly(ADP-ribose) in permeabilised L1210 cells, oligonucleotide activated); assay type: biochemical, L1210 murine leukaemia cells
T1 construct: endogenous in cells; host or cells: L1210 murine leukaemia cells, permeabilised by hypotonic buffer and cold shock
Excerpt: In principle, the PARP assay used relies upon activating endogenous PARP (as hereinafter described) in cells containing exogenous [^32 P]-NAD^+ introduced therein by suspending the cells in a solution of [^32 P]-NAD^+ to which they have been rendered permeable in an initial pretreatment step. The poly(ADP-ribose) which is then synthesised by the enzyme can be precipitated by trichloracetic acid (TCA) and the amount of radio-labelled ^32 p incorporated therein measured, e.g. using a scintillation counter, to give a measure of the activity of the PARP under the particular conditions of the experiment. By repeating the experiment following the same procedure, and under the same conditions, in the presence of each compound to be tested the reduction in enzyme activity, representative of the inhibitory effect of the test compound, can then be ascertained from the reduction, if any, of the amount of [^32 P] measured in the TCA precipitated poly(ADP-ribose).
Thus, with a range of different compounds a set of comparative values for inhibitory activity can be obtained.
In practice, L1210 murine leukaemia cells were used as the source of the PARP enzyme after being rendered permeable to exogenous [^32 P]NAD by exposure to hypotonic buffer and cold shock. […] This oligonucleotide sequence snaps back on itself to form a double-stranded molecule with a single blunt end and provides an effective substrate for activation of PARP.
The experimental protocol adopted, in which a synthetic oligonucleotide as mentioned above is introduced as a specific activator of PARP, discriminates between PARP and other mono-ADP-ribosyltransferases in the cells.
The oligonucleotide having the palindromic sequence […], synthesised by conventional means, was vacuum dried and stored as pellets in a freezer. Before use, it was made up to 200 μg/ml in 10 mM Tris/HCl, pH 7.8, with each pellet being dissolved completely in […] of buffer. The solution was then heated to 60° C. in a water bath for 15 minutes, and allowed to cool slowly to ensure correct reannealing. After adding 9.5 ml of buffer, the concentration was checked by measuring the optical density of a diluted sample at 260 nm. The main solution was then diluted to a concentration of 200 μg/ml and stored in 500 μl aliquots in a freezer, ready for use.
The L1210 cells used as the source of the PARP enzyme were maintained as a suspension culture in RPMI medium+10% foetal bovine serum+glutamine and antibiotics (penicillin and streptomycin). HEPES and sodium bicarbonate were also added, and the cells were seeded in 100 ml of medium such that there would be a concentration of approximately 8×10^5 /ml at the time of carrying out an assay.
(§1) The solubility of the compound was then checked by adding a quantity of the DMSO solution to a quantity of the isotonic buffer, in the required final proportions that were to be used in carrying out the assay, and after an interval the solution was examined under a microscope for any signs of crystals forming.
A desired quantity of the cells, ascertained by counting with a haemocytometer, was then centrifuged (1500 rpm in a "Europa" model 24M centrifuge for 5 minutes), the supernatant removed, and the pellets obtained were resuspended in 20 ml Dul A at 4° C. before centrifuging again at 1500 rpm and 4° C. After again removing the supernatant, the cells were resuspended at a concentration of 3×10^7 cells/ml in ice cold hypotonic buffer and left for 30 minutes on ice. Nine volumes were then added of ice cold isotonic buffer, and the cells, now rendered permeable to exogenous NAD^+, were then used within the next hour for carrying out an assay.

[2] = solubility check of test compound in assay buffer (DMSO solution added to isotonic buffer, microscope); assay type: physicochemical
Excerpt: as §1, with “The compounds being tested were generally made up as a concentrated solution in DMSO (Dimethyl sulphoxide). The” for “The”

[3] = 10 μM, read-out: % Inhibition (PARP)
[4] = 30 μM, read-out: % Inhibition (PARP)
[5] = 100 μM, read-out: % Inhibition (PARP)
[6] = read-out: % Inhibition (PARP), 10 μM
[7] = read-out: % Inhibition (PARP), 30 μM
[8] = unit printed broken, attached to the next cell

T1 sequence (P11103 whole entry): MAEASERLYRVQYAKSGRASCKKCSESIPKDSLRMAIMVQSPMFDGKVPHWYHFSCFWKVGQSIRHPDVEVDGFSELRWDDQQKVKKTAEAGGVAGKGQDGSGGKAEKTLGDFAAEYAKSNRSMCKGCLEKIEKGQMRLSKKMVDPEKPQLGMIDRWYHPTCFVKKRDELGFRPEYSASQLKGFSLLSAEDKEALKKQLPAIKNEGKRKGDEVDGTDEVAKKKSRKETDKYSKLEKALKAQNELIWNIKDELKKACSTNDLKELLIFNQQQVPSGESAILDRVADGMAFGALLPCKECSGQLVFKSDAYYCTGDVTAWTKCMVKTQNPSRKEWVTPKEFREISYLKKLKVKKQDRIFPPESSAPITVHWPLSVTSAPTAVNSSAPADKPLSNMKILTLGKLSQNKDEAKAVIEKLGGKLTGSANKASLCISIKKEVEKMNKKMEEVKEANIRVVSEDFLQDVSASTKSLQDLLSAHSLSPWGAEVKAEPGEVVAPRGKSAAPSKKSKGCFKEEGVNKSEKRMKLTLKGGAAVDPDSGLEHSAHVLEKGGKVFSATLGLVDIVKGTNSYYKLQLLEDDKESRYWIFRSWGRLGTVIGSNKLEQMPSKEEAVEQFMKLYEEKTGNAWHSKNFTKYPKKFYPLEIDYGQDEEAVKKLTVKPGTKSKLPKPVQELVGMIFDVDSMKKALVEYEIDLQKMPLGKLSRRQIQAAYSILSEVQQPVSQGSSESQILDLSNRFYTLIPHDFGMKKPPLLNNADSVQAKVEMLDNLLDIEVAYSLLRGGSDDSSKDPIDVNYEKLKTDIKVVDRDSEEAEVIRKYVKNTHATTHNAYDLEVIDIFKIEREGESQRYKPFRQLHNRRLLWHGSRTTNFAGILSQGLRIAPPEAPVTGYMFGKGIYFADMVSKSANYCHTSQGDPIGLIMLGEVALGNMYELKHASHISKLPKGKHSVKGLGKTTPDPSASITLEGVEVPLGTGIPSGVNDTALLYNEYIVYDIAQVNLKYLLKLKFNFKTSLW

Row | Compound | inhibition at 10 µM [1, 3] | inhibition at 30 µM [1, 4] | inhibition at 100 µM [1, 5] | other results
1 | Cc1nc2c(C(N)=O)cccc2o1 [NU1056, 2-Methylbenzoxazole-4-carboxamide] |  |  |  | IC50 [1]: 9500 nM; PARP inhibitory activity in words [1]: relatively high inhibitory activity even at low concentrations
2 | NC(=O)c1cccc(OCc2cccc([N+](=O)[O-])c2)c1 [NU1017, 3-(3-Nitrobenzyloxy)benzamide] | 21% | 40% |  | insolubility at assay concentration ([2]; 100 μM): insol.
3 | COC(=O)c1ccc(COc2cccc(C(N)=O)c2)cc1 [NU1041, 3-(4-carboxymethylbenzyloxy)benzamide] |  |  |  | insolubility at assay concentration ([2]; 10 μM): insol.; insolubility at assay concentration ([2]; 30 μM): insol.; insolubility at assay concentration ([2]; 100 μM): insol.
4 | CGGAATTCCG: small synthetic single strand oligonucleotide having the palindromic sequence CGGAATTCCG (chemistry not given here) [reference compound] |  |  |  | activation of PARP in words [1]: potent activator of the enzyme
5 | NC(=O)c1cccc2oc(-c3ccccc3)nc12 [NU1051, 2-Phenylbenzoxazole-4-carboxamide] | 82% |  |  | IC50 [1]: 2100 nM; PARP inhibitory activity in words [1]: relatively high inhibitory activity even at low concentrations
6 | NC(=O)c1cccc(OCCCCCCCCn2cnc3c(N)ncnc32)c1 [NU1022, 3-(8-adenos-9-yloctyloxy)benzamide] | 30% |  |  | 
7 | NC(=O)c1cccc(OCc2ccc3c(c2)OCO3)c1 [NU1020, 3-(Piperonyloxy)benzamide] | 51% | 70% | 93% | 
8 | COc1cccc(C(N)=O)c1 [3-methoxybenzamide, reference compound] | 55% | 78% | 89% | 
9 | NC(=O)c1cccc(OCCCCCCCCn2cnc3c(Cl)ncnc32)c1 [NU1027, 3-[8-(6-chloropurin-9-yl)octyloxy]benzamide] | 30% |  |  | insolubility at assay concentration ([2]; 30 μM): insol.; insolubility at assay concentration ([2]; 100 μM): insol.
10 | NC(=O)c1cccc(OCc2ccccc2)c1 [NU1005, 3-benzyloxybenzamide] |  |  | 76% | inhibition at 10 µM [1, 6]: 34%; inhibition at 30 µM [1, 7]: 60%
11 | COc1cccc2c(=O)[nH]c(-c3ccccc3)nc12 [NU1065, 8-Methoxy-2-phenylquinazolin-4-[3H]-one] |  |  |  | IC50 [1]: 4200 nM
12 | NC(=O)c1cccc2c1OCO2 [NU1034, 2,3-methylenedioxy benzamide] | 66% |  | 94% | IC50 [1, 8]: 5300 nM
13 | NC(=O)c1cccc(OCCCCCn2cnc3c(N)ncnc32)c1 [NU1024, 3-(5-Adenos-9-ylpentyloxy)benzamide] | 16% | 42% | 67% | 
14 | NC(=O)c1cccc(OCC2CCCCC2)c1 [NU1008, 3-(cyclohexylmethyloxy)benzamide] |  |  |  | PARP inhibitory activity in words [1]: some PARP inhibitory activity; insolubility at assay concentration ([2]; 10 μM): insol.; insolubility at assay concentration ([2]; 30 μM): insol.; insolubility at assay concentration ([2]; 100 μM): insol.
15 | NC(=O)c1cccc(OCc2ccccc2[N+](=O)[O-])c1 [NU1042, 3-(2-Nitrobenzyloxy)benzamide] |  |  |  | insolubility at assay concentration ([2]; 10 μM): insol.; insolubility at assay concentration ([2]; 30 μM): insol.; insolubility at assay concentration ([2]; 100 μM): insol.
16 | NC(=O)c1cccc(OCCCCCn2cnc3c(Cl)ncnc32)c1 [NU1023, 3-[5-(6-Chloropurin-9-yl)pentyloxy]benzamide] | 26% | 45% | 71% | 
17 | CCCCCCCCOc1cccc(C(N)=O)c1 [NU1045, 3-octyloxybenzamide] |  |  |  | insolubility at assay concentration ([2]; 10 μM): insol.; insolubility at assay concentration ([2]; 30 μM): insol.; insolubility at assay concentration ([2]; 100 μM): insol.

Row | Compound | inhibition at 10 µM [1, 3] | inhibition at 30 µM [1, 4] | inhibition at 100 µM [1, 5] | other results
18 | COc1cccc2c(=O)[nH]c(C)nc12 [NU1063, 8-Methoxy-2-methylquinazolin-4-[3H]-one] |  |  |  | IC50 [1]: 780 nM; PARP inhibitory activity in words [1]: potent PARP inhibitors
19 | [N-]=[N+]=Nc1ccc(COc2cccc(C(N)=O)c2)cc1 [NU1013, 3-(4-Azidobenzyloxy)benzamide] |  |  |  | inhibition at 10 µM [1, 6]: 49%; inhibition at 30 µM [1, 7]: 28%; inhibition at 100 µM ([1]; read-out: % Inhibition (PARP), 100 μM): 43%
20 | COc1ccc(-c2nc3c(C(N)=O)cccc3o2)cc1 [NU1054, 2-(4-Methoxyphenyl)benzoxazole-4-carboxamide] |  |  |  | IC50 [1]: 1100 nM; PARP inhibitory activity in words [1]: relatively high inhibitory activity even at low concentrations
21 | CC(C)(C)c1nc2c(C(N)=O)cccc2o1 [NU1040, 2-t-butylbenzoxazole-4-carboxamide] | 87% | 88% | 93% | PARP inhibitory activity in words [1]: relatively high inhibitory activity even at low concentrations; IC50 [1, 8]: 8400 nM
22 | NC(=O)c1cccc(OCCCCCBr)c1 [NU1019, 3-(5-Bromopentyloxy)benzamide] |  | 54% | 81% | 
23 | O=c1[nH]c(-c2ccccc2)nc2c(O)cccc12 [NU1068, 8-Hydroxy-2-phenylquinazolin-4-[3H]-one] |  |  |  | IC50 [1]: 530 nM; PARP inhibitory activity in words [1]: potent PARP inhibitors
24 | NC(=O)c1cccc(OCCc2ccccc2)c1 [NU1048, 3-(Phenethyl)oxybenzamide] | 30% | 50% | 72% | 
25 | Cc1nc2c(C)cccc2c(=O)[nH]1 [NU1069, 2,8-Dimethylquinazolin-4-[3H]-one] |  |  |  | IC50 [1]: 200 nM; PARP inhibitory activity in words [1]: potent PARP inhibitors
26 | NC(=O)c1cccc(O)c1 [3-hydroxybenzamide, reference compound] | 35% | 59% | 81% | 
27 | NC(=O)c1cccc(OCc2ccc(C(F)(F)F)cc2)c1 [NU1036, 3-(4-Trifluoromethylbenzyloxy)benzamide] | 3% | 13% | 10% | 
28 | CC(=O)Nc1ccc(COc2cccc(C(N)=O)c2)cc1 [NU1030, 3-(N-acetyl-4-aminobenzyloxy)benzamide] | 49% | 70% | 84% | 
29 | NC(=O)c1cccc(OCc2ccc(N)cc2)c1 [NU1016, 3-(4-aminobenzyloxy)benzamide] | 40% | 66% | 84% | 
30 | O=c1[nH]cnc2c(O)cccc12 [NU1026, 8-hydroxyquinazolin-4-[3H]one] | 78% | 87% | 95% | PARP inhibitory activity in words [1]: quite strong PARP inhibitory activity; inhibition at 0.5 µM ([1]; 0.5 μM): 18%; inhibition at 1 µM ([1]; 1 μM (1.0 μM)): 38%; inhibition at 2 µM ([1]; 2.0 μM): 54%; IC50 [1, 8]: 2000 nM
31 | CCCCCOc1cccc(C(N)=O)c1 [NU1039, 3-pentyloxybenzamide] | 18% | 45% | 66% | 
32 | C=CCOc1cccc(C(N)=O)c1 [NU1031, 3-Allyloxybenzamide] | 21% | 58% | 80% | 
33 | NC(=O)c1cccc(OCCCCCCCCCCCCn2cnc3c(N)ncnc32)c1 [NU1029, 3-(12-adenos-9-yldodecyloxy)benzamide] | 26% | 51% | 74% | 
34 | CCCCOc1cccc(C(N)=O)c1 [NU1038, 3-butoxybenzamide] | 23% | 50% | 78% | 
